The text below walks through data of patent US20240285554A1, “POLYVINYL ALCOHOL COMPOSITIONS AND METHODS OF MAKING AND USING THEM” (Emanate Biomedical, Inc., priority 2023, published 2024).

In assay [1] the test system is gram positive bacteria and gram negative bacteria. Briefly: Zone of Inhibition (ZOI) testing. In kind it is cell-based. The following applies: composition with 0.005%, 0.025%, 0.05%, 0.1%, and 0.15% w/w of CHG. The text has this:
(§1) The CHG concentration of 0.05% w/w was the lowest dose showing strong efficacy against both bacteria and fungus and was therefore selected as the suitable preservative concentration.

Assay [2] has as its system C. albicans ATCC 10231. Briefly: Antimicrobial efficacy testing (modified AATCC 100 test). The settings on record: contact time 30 min, study NG17964. In kind it is cell-based, Candida albicans.
Description: as §1

In assay [3] the test system is S. aureus ATCC 6538. The assay is described as above. The settings on record: for Log10 Reduction Compared to Control / Percent Reduction Compared to Control / Average CFU/carrier: S. aureus ATCC 6538, study NG17598-A1; for Average CFU/carrier: limit of detection. Format: cell-based, Staphylococcus aureus.
Description: as §1

The subject of assay [4] is P. aeruginosa ATCC 9027. The assay is described as above. In kind it is cell-based, Pseudomonas aeruginosa. The settings on record: for Log10 Reduction Compared to Control / Percent Reduction Compared to Control / Average CFU/carrier: P. aeruginosa ATCC 9027, study NG17598-A1; for Average CFU/carrier: limit of detection.
Description: as §1

Assay [5] concerns bacteria and fungus. The assay can be described thus: Antimicrobial efficacy, choice of preservative concentration. Format: cell-based. The following applies: selected as the suitable preservative concentration.
Description: as §1

Assay [6] has as its system C. tropicalis ATCC 750. Briefly: Antimicrobial efficacy testing (modified AATCC 100 test). In kind it is cell-based, Candida tropicalis.
Description: as §1

The subject of assay [7] is C. tropicalis ATCC 750. The assay is described as above. In kind it is cell-based, Candida tropicalis. The following applies: for Average CFU/carrier / Log10 Reduction Compared to Control / Percent Reduction Compared to Control: C. tropicalis ATCC 750, contact time 30 min, study NG17964; for efficacy: tested against Candida albicans and Candida tropicalis.
Assay [8] has as its system oral pathogenic bacteria. The settings on record: cited from earlier work.
Where [9] appears, read: CHG Conc 0.005 % w/w, contact time 30 min.
The mark [10] stands for this setting: CHG Conc 0.1 % w/w, contact time 60 min.
Where [11] appears, read: CHG Conc 0.1 % w/w, contact time 24 hrs.
Where [12] appears, read: C. tropicalis ATCC 750, CHG Conc 0.05 % w/w, contact time 30 min, study NG17964.

Consider `N=C(NCCCCCCNC(=N)NC(=N)Nc1ccc(Cl)cc1)NC(=N)Nc1ccc(Cl)cc1.O=C(O)[C@H](O)[C@@H](O)[C@H](O)[C@H](O)CO.O=C(O)[C@H](O)[C@@H](O)[C@H](O)[C@H](O)CO` [CHG], for which the “effect in Zone of Inhibition (ZOI) testing” value in assay [1] is given as “showed inhibitory effects”. For the same compound, the “Average CFU/carrier” value in assay [2] (CHG Conc 0.005 % w/w) is listed as 1.00E+05 CFU/carrier; in assay [2] (CHG Conc 0.05 % w/w), 2.48E+02 CFU/carrier; in assay [2] (CHG Conc 0.1 % w/w) it was 7.50E+00 CFU/carrier; in assay [3] (setting [9]) it was <5.00E+00^1 CFU/carrier; in assay [3] (setting [10]), <5.00E+00^1 CFU/carrier; in assay [3] (setting [11]), <5.00E+00^1 CFU/carrier. For the same compound, the “Average CFU/carrier” value is reported as <5.00E+00^1 CFU/carrier in assay [4] (setting [9]); <5.00E+00^1 CFU/carrier in assay [4] (setting [10]); <5.00E+00^1 CFU/carrier in assay [4] (setting [11]); <5.00E+00^1 CFU/carrier in assay [6] (C. tropicalis ATCC 750, CHG Conc 0.05 % w/w, contact time 30 min, study NG17964, limit of detection); 2.70E+04 CFU/carrier in assay [7] (CHG Conc 0.005 % w/w); <5.00E+00^1 CFU/carrier in assay [7] (CHG Conc 0.1 % w/w, limit of detection). The “Log10 Reduction Compared to Control” value in assay [2] (CHG Conc 0.005 % w/w) is reported as 0.25; in assay [2] (CHG Conc 0.05 % w/w), 2.86; in assay [2] (CHG Conc 0.1 % w/w), 4.37; in assay [3] (setting [9]), over 4.40; in assay [3] (setting [10]), over 4.57; in assay [3] (setting [11]) it was over 4.58. Moreover, the “Log10 Reduction Compared to Control” value is recorded as over 4.43 in assay [4] (setting [9]); over 4.53 in assay [4] (setting [10]); over 4.70 in assay [4] (setting [11]); over 4.46 in assay [6] (setting [12]); 0.73 in assay [7] (CHG Conc 0.005 % w/w); over 4.46 in assay [7] (CHG Conc 0.1 % w/w). Further, the “Percent Reduction Compared to Control” value in assay [2] (CHG Conc 0.005 % w/w) is recorded as 43.52%; in assay [2] (CHG Conc 0.05 % w/w), 99.86%; in assay [2] (CHG Conc 0.1 % w/w), 99.996%; in assay [3] (setting [9]), over 99.996%; in assay [3] (setting [10]), over 99.997%; in assay [3] (setting [11]) it was over 99.997%. For the same compound, the “Percent Reduction Compared to Control” value in assay [4] (setting [9]) was over 99.996%; in assay [4] (setting [10]), over 99.996%; in assay [4] (setting [11]), over 99.998%; in assay [6] (setting [12]), over 99.997%; in assay [7] (CHG Conc 0.005 % w/w) it was 81.38%; in assay [7] (CHG Conc 0.1 % w/w), over 99.997%. Moreover, the “reduction of the concentration of microorganisms” value in assay [3] (Staphylococcus aureus, CHG 0.05% w/w, after 30 min contact time) is “more than 99.99%”; in assay [4] (Pseudomonas aeruginosa, CHG 0.05% w/w, after 30 min contact time), “more than 99.99%”. The “reduction of the concentration of the microorganisms” value in assay [3] (Staphylococcus aureus, CHG 0.1% w/w, after 60 min and 24 hour contact time) is reported as “more than 99.99%”; in assay [4] (Pseudomonas aeruginosa, CHG 0.1% w/w, after 60 min and 24 hour contact time), “more than 99.99%”. In addition, in assay [5], the “lowest dose showing strong efficacy against both bacteria and fungus” value is 0.05 % w/w. Besides, the efficacy turned out to be 99.997% in assay [6] (tested against Candida albicans and Candida tropicalis, CHG 0.05% w/w); 81.38% in assay [7] (CHG 0.005% w/w); 99.997% in assay [7] (CHG 0.1% w/w).

With `[H]/N=C(\N/C(=N/[H])NCCCCCCNC(=N)NC(=N)Nc1ccc(Cl)cc1)Nc1ccc(Cl)cc1` [Chlorhexidine, chlorhexidine], the MIC in assay [8] (against oral pathogenic bacteria) is recorded as 0.0125 % w/v. In assay [8] (at 10 minutes), the MBC is 0.5 % w/v.
